Assays:
[1] = from Cc1cccc(C)c1-c1cc(OCC(CCC(C)(C)F)NCc2cnc3oc(C(C)C)cc3n2)nc(NS(=O)(=O)c2cccc(C(=O)O)c2)n1; amide bond; 13-membered ring; CDMT/NMM; DMF; 35.1 mM; 16.0 h
[2] = biological target: T1, CFTR (F508del/MF-HBE cells) (Homo sapiens, UniProt P13569, DEL508-508); test: Ussing chamber assay of CFTR-mediated short-circuit currents, Assay A (0.1 μM to 25 μM, 6 concentrations); format: cell-based; conditions: with 33 nM potentiator and 18 μM Tezacaftor, 20% human serum; for Emax: 18-24 hours, read-out: A Max activity (%)
T1 construct: human bronchial epithelial (HBE) cells derived from CF subjects heterozygous for F508del and a minimal function CFTR mutation (F508del/MF-HBE); endogenous in cells; host or cells: Primary human bronchial epithelial cells from CF subjects (F508del/MF genotype), differentiated at an air-liquid interface
T1 sequence (P13569 with tags, fused parts or gaps DEL508-508): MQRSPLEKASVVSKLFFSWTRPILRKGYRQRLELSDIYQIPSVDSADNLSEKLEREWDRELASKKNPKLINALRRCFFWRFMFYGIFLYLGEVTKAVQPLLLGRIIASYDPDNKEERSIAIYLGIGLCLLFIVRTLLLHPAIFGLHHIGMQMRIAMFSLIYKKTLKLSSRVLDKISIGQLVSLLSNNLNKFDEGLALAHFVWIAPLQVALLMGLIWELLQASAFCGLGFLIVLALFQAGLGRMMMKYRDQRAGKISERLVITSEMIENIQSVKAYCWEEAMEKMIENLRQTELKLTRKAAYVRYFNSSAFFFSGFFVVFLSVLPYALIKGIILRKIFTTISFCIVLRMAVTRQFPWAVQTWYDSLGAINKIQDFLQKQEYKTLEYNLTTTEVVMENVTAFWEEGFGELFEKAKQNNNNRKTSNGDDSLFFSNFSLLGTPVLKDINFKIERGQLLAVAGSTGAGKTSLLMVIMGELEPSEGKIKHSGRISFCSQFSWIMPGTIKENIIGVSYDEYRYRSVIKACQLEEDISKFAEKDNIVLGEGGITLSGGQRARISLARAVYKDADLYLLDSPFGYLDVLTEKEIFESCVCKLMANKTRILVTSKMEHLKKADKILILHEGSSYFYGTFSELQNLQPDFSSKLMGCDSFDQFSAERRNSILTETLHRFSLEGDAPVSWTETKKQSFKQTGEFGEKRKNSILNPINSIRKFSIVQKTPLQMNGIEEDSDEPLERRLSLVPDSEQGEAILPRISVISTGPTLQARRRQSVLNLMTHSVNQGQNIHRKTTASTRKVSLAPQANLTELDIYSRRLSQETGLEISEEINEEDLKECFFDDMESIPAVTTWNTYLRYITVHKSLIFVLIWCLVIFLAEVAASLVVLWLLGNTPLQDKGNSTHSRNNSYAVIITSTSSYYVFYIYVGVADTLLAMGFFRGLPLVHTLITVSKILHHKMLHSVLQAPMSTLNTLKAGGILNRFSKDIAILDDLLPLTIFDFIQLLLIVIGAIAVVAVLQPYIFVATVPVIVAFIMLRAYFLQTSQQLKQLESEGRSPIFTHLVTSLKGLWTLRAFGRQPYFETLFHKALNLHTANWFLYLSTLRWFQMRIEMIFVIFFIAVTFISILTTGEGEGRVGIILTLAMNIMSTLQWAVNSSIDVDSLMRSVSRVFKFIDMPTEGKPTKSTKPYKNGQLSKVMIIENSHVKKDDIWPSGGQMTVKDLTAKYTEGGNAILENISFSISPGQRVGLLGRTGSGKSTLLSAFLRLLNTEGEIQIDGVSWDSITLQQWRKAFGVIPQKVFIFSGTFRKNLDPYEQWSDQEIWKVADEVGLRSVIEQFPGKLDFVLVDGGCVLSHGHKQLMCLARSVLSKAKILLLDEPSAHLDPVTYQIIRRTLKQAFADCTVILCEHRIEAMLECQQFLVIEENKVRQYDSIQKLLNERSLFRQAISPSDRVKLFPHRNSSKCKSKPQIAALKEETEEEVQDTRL
Procedure: (§1) Ussing chamber experiments were performed using human bronchial epithelial (HBE) cells derived from CF subjects heterozygous for F508del and a minimal function CFTR mutation (F508del/MF-HBE) and cultured as previously described (Neuberger T, Burton B, Clark H, Van Goor F Methods Mol Biol 2011:741:39-54). After four days the apical media was removed, and the cells were grown at an air liquid interface for >14 days prior to use.
(§2) To isolate the CFTR-mediated short-circuit (ISC) current, F508del/MF-HBE grown on Costar® Snapwell™ cell culture inserts were mounted in an Ussing chamber and the transepithelial ISC was measured under voltage-clamp recording conditions (Vhold=0 mV) at 37° C. The basolateral solution contained (in mM) 145 NaCl, 0.83 K2HPO4, 3.3 KH2PO4, 1.2 MgCl2, 1.2 CaCl2, 10 Glucose, 10 HEPES (pH adjusted to 7.4 with NaOH) and the apical solution contained (in mM) 145 NaGluconate, 1.2 MgCl2, 1.2 CaCl2, 10 glucose, 10 HEPES (pH adjusted to 7.4 with NaOH) and 30 μM amiloride to block the epithelial sodium channel. Forskolin (20 μM) was added to the apical surface to activate CFTR, followed by apical addition of a CFTR inhibitor cocktail consisting of BPO, GlyH-101, and CFTR inhibitor 172 (each at 20 μM final assay concentration) to specifically isolate CFTR currents. The CFTR-mediated ISC (μA/cm^2) for each condition was determined from the peak forskolin response to the steady-state current following inhibition.
(§3) The activity of the CFTR corrector compounds on the CFTR-mediated ISC was determined in Ussing chamber studies as described above. The F508del/MF-HBE cell cultures were either incubated with the corrector compounds at a range of concentrations in combination with 33 nM (6R,12R)-17-amino-12-methyl-6,15-bis(trifluoromethyl)-13,19-dioxa-3,4,18-triazatricyclo[12.3.1.12,5]nonadeca-1(18),2,4,14,16-pentaen-6-ol and 18 μM Tezacaftor or were incubated with the corrector compounds at a single fixed concentration of 1 μM in combination with 44 nM (6R,12R)-17-amino-12-methyl-6,15-bis(trifluoromethyl)-13,19-dioxa-3,4,18-triazatricyclo[12.3.1.12,5]nonadeca-1(18),2,4,14,16-pentaen-6-ol and 18 μM Tezacaftor for 18-24 hours at 37° C. and in the presence of 20% human serum. The concentration of corrector compounds with 44 nM or 33 nM (6R,12R)-17-amino-12-methyl-6,15-bis(trifluoromethyl)-13,19-dioxa-3,4,18-triazatricyclo[12.3.1.12,5]nonadeca-1(18),2,4,14,16-pentaen-6-ol and 18 μM Tezacaftor during the 18-24 hours incubations was kept constant throughout the Ussing chamber measurement of the CFTR-mediated ISC to ensure compounds were present throughout the entire experiment. The efficacy and potency of the putative F508del correctors was compared to that of the known Vertex corrector, (14S)-8-[3-(2-{Dispiro[2.0.2.1]heptan-7-yl}ethoxy)-1H-pyrazol-1-yl]-12,12-dimethyl-2λ^6-thia-3,9,11,18,23-pentaazatetracyclo[17.3.1.111,14.05,10]tetracosa-1(22),5,7,9,19(23),20-hexaene-2,2,4-trione, in combination with 18 μM Tezacaftor and 1 μM Ivacaftor.
(§4) • Assay A: 0.1 μM to 25 μM, 6 concentrations • Assay B: 0.00001 μM to 25 μM, 12 concentrations • Assay C: 0.026 μM to 25 μM, 6 concentrations • Assay D: Activity at single concentration of 1 μM

[3] = biological target: T1, CFTR (F508del/MF-HBE cells); test: Ussing chamber assay of CFTR-mediated short-circuit currents, Assay B (0.00001 μM to 25 μM, 12 concentrations); format: cell-based; conditions: with 33 nM potentiator and 18 μM Tezacaftor, 20% human serum; for Emax: read-out: B Max activity (%)
Procedure: as §1, §2, §3, §4

[4] = biological target: T1, CFTR (F508del/MF-HBE cells); test: Ussing chamber assay of CFTR-mediated short-circuit currents, Assay C (0.026 μM to 25 μM, 6 concentrations); format: cell-based; conditions: with 33 nM potentiator and 18 μM Tezacaftor, 20% human serum; for Emax: read-out: C Max activity (%)
Outline: (§5)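 Short-circuit current was recorded at 37 °C under voltage clamp (0 mV) with amiloride 30 μM apically, forskolin 20 μM activation, then BPO/GlyH-101/inh-172 (20 μM each) to isolate CFTR current. Before recording, corrector exposure lasted 18–24 h with 18 μM tezacaftor, 20% human serum, and 33 nM (dose–response) or 44 nM (1 μM fixed) potentiator, maintained throughout.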

[5] = biological target: T1, CFTR (F508del/MF-HBE cells); test: Ussing chamber assay of CFTR-mediated short-circuit currents, Assay D (single concentration of 1 μM); format: cell-based; conditions: with 44 nM potentiator and 18 μM Tezacaftor, 18-24 hours, 20% human serum
Outline: as §5

| SMILES | Emax [2] | EC50 [2] | Emax ([3]; 18-24 hours) | EC50 [3] | also measured |
| --- | --- | --- | --- | --- | --- |
| Cc1cccc(C)c1-c1cc2nc(n1)NS(=O)(=O)c1cccc(c1)C(=O)N(Cc1cnc3oc(C(C)C)cc3n1)C(CCC(C)(C)F)CO2 (stereo not drawn) | – | – | – | – | ring closure, yield after HPLC [1]: 65% |
| Cc1cccc(CC(C)C)c1-c1nc2nc(c1C)OC[C@@H](CC(C)(C)C)N(Cc1cnc3oc(C(C)C)cc3n1)C(=O)c1cccc(c1)S(=O)(=O)N2 (atropisomer, axis not shown) [Compound I-65] | > 60% | < 1 µM | > 60% | 1 to 3 µM | – |
| Cc1cccc(CC(C)C)c1-c1nc2nc(c1C)OC[C@@H](CC(C)(C)C)N(Cc1cnc3cc(C(C)C)n(C)c3n1)C(=O)c1cccc(c1)S(=O)(=O)N2 (atropisomer, axis not shown) [Compound I-82] | > 60% | < 1 µM | > 60% | < 1 µM | – |
| COCCc1c(C(C)(C)C)n(C)c2nc(CN3C(=O)c4cccc(c4)S(=O)(=O)Nc4nc(c(OC)c(-c5c(C)cccc5CC(C)C)n4)OC[C@H]3CC(C)(C)C)cnc12 (atropisomer, axis not shown) [IV-94] | – | – | – | < 1 µM | EC50 [4]: < 1 µM; Emax [4]: > 60%; Emax [3]: > 60% |
| Cc1cccc(C)c1-c1cc2nc(n1)NS(=O)(=O)c1cccc(c1)C(=O)N(Cc1cnc3oc(C4CC4)cc3n1)C(CCC1(C)CC1)CO2 (single isomer, unassigned) [Compound I-71, 12-[(6-cyclopropylfuro[2,3-b]pyrazin-2-yl)methyl]-6-(2,6-dimethylphenyl)-11-[2-(1-methylcyclopropyl)ethyl]-2,2-dioxo-9-oxa-2λ^6-thia-3,5,12,19-tetrazatricyclo[12.3.1.14,8]nonadeca-1(18),4(19),5,7,14,16-hexaen-13-one] | > 60% | < 1 µM | > 60% | 3 to 30 µM | – |
| Cc1cccc(C)c1-c1cc2nc(n1)NS(=O)(=O)c1cccc(c1)C(=O)N(Cc1cnc3oc(C(C)C)cc3n1)[C@@H](CCC1(C)CC1)CO2 (stereo in doubt) [Compound I-70] | > 60% | < 1 µM | > 60% | 3 to 30 µM | – |
| Cc1cccc(C)c1-c1cc2nc(n1)NS(=O)(=O)c1cccc(c1)C(=O)N(Cc1cnc3oc(C4CC4)cc3n1)[C@H](CCC(C)(C)C)CO2 [Compound I-24] | > 60% | < 1 µM | > 60% | 1 to 3 µM | – |
| Cc1cccc(C)c1-c1cc2nc(n1)NS(=O)(=O)c1cccc(c1)C(=O)N(Cc1cnc3oc(C(C)C)cc3n1)[C@H](CC1CCC1)CO2 [Compound I-56] | > 60% | < 1 µM | > 60% | 1 to 3 µM | – |
| Cc1cccc(C)c1-c1cc2nc(n1)NS(=O)(=O)c1cccc(c1)C(=O)N(Cc1cnc3oc(C(C)C)cc3n1)[C@H](CC1CC1)CO2 [Compound I-57] | > 60% | < 1 µM | > 60% | 3 to 30 µM | – |
| Cc1cccc(C)c1-c1cc2nc(n1)NS(=O)(=O)c1cccc(c1)C(=O)N(Cc1nc3cc(C(C)C)oc3cc1F)[C@H](CC13CC(C1)C3)CO2 [Compound I-89] | > 60% | < 1 µM | > 60% | 1 to 3 µM | – |
| Cc1cccc(C)c1-c1cc2nc(n1)NS(=O)(=O)c1cccc(c1)C(=O)N(Cc1cnc3oc(C4(C)CC4)cc3n1)[C@H](CC13CC(C1)C3)CO2 [Compound I-97] | > 60% | < 1 µM | > 60% | 1 to 3 µM | – |
| Cc1cccc(C)c1-c1cc2nc(n1)NS(=O)(=O)c1cccc(c1)C(=O)N(Cc1cnc3oc(C4CC4)cc3n1)[C@H](CC1CC1)CO2 [Compound I-103] | > 60% | < 1 µM | > 60% | 1 to 3 µM | – |
| Cc1cccc(C)c1-c1cc2nc(n1)NS(=O)(=O)c1cccc(c1)C(=O)N(Cc1cnc3oc(C4CC4)cc3n1)[C@H](CC1CCC1)CO2 [Compound I-104, (11R)-11-(cyclobutylmethyl)-12-[(6-cyclopropylfuro[2,3-b]pyrazin-2-yl)methyl]-6-(2,6-dimethylphenyl)-2,2-dioxo-9-oxa-2λ^6-thia-3,5,12,19-tetrazatricyclo[12.3.1.14,8]nonadeca-1(18),4(19),5,7,14,16-hexaen-13-one] | > 60% | < 1 µM | > 60% | 3 to 30 µM | – |
| Cc1cccc(C)c1-c1cc2nc(n1)NS(=O)(=O)c1cccc(c1)C(=O)N(Cc1cnc3nc(C4CC4)n(C)c3n1)[C@H](COC(C)C)CO2 [Compound I-139] | – | – | > 60% | 3 to 30 µM | – |
| Cc1cccc(C)c1-c1cc2nc(n1)NS(=O)(=O)c1cccc(c1)C(=O)N(Cc1cnc3cc(C4CC4)n(C)c3n1)[C@H](COC(C)C)CO2 [Compound I-151] | – | – | > 60% | 3 to 30 µM | – |
| Cc1cccc(C)c1-c1nc2nc(c1C)OC[C@@H](CC(C)(C)C)N(Cc1cnc3nc(C(C)C)n(C)c3n1)C(=O)c1cccc(c1)S(=O)(=O)N2 [Compound I-167] | – | – | > 60% | < 1 µM | – |
| Cc1cccc(C)c1-c1nc2nc(c1C)OC[C@@H](COC(C)C)N(Cc1cnc3cc(C(C)(C)C)n(C)c3n1)C(=O)c1cccc(c1)S(=O)(=O)N2 [Compound I-182] | – | – | > 60% | < 1 µM | D activity at 1 μM (%) [5]: +++ (+++ is >60%); Emax ([4]; 18-24 hours): > 60%; EC50 [4]: < 1 µM |
| Cc1cccc(CC(C)C)c1-c1nc2nc(c1C)OC[C@@H](CC(C)(C)C)N(Cc1cnc3cc(C(C)(C)C)n(C)c3n1)C(=O)c1cccc(c1)S(=O)(=O)N2 [Compound I-206, (5P,11R)-12-({6-tert-butyl-5-methyl-5H-pyrrolo[2,3-b]pyrazin-3-yl}methyl)-11-(2,2-dimethylpropyl)-7-methyl-6-[2-methyl-6-(2-methylpropyl)phenyl]-9-oxa-2λ^6-thia-3,5,12,19-tetraazatricyclo[12.3.1.1∧{4,8}]nonadeca-1(17),4(19),5,7,14(18),15-hexaene-2,2,13-trione] | – | – | – | < 1 µM | C Max activity (%) ([4]; 18-24 hours): +++ (+++ is >60%); EC50 [4]: < 1 µM; B Max activity (%) ([3]; 18-24 hours): +++ (+++ is >60%) |
| Cc1cccc(CC(C)C)c1-c1nc2nc(c1C)OC[C@@H](CC13CC(C1)C3)N(Cc1cnc3cc(C(C)(C)C)n(C)c3n1)C(=O)c1cccc(c1)S(=O)(=O)N2 [IV-1] | – | – | – | < 1 µM | Emax [3]: > 60% |
